Entries after “also recorded” stand apart in the source; their conditions may differ.
Columns and labels:
MCF7 cells [1] = test: RT-qPCR of HERV, repeat and immune gene mRNA in MCF7 cells; format: cell-based, human
Protocol: (§1) HP1 small interfering RNAs (siRNAs) were described previously. PADI4 (J-012471-05) and Glyceraldehyde-3-phosphate dehydrogenase control siRNAs were purchased from Dharmacon. Cells were harvested 72 h after transfection with DharmaFECT 1 (T 2001-03). Total RNA from PBMCs and MCF7 cells was extracted with RNeasy (Qiagen) and quantified with an ND-1000 (Nanodrop). After DNase treatment (Roche), reverse transcription was performed using SuperScript III (Invitrogen) and random hexanucleotides according to the manufacturer's instructions. Complementary DNA was quantified by RT-qPCR as previously described. Proteins were extracted as described previously and detected by Western blotting. Acid extraction of histones was conducted as described by Shechter, et al., [78].

MCF7 cells [2] = test: Immunoblot of PADI4 and H3cit8K9me3 in MCF7 cells; format: cell-based, human
Description: Anti-H3cit8K9me3 antibody was produced in rabbits using a peptide coupled to KLH with the following sequence: ARTKQTA (cit)(Kme3)[…]. Anti-PADI4 (ChIP: P4749; immunoblots: ab50332), anti-H3cit(2,8,17) (ab5103), anti-H3(ab1791), and anti-H3K9me3 (ab8898) antibodies were purchased from Abcam. Anti-HP1α (ChIP: 1H5; immunoblots: 2G9) and anti-Brg1 (2E12) were from Euromedex. Calcium ionophore A23187 (used on HEK293 and MCF7 cells) and ionomycin (only ionophore tolerated by Jurkat cells), and 17-ß-estradiol (E2758) were purchased from Sigma. DNA was labeled with 4′,6-diamidino-2-phenylindole (DAPI; Invitrogen) at a concentration of 150 ng.ml^−1. […] Peptides were carefully quantified by amino acid analysis, and the presence of the modifications was confirmed by mass spectrometry. […]
as §1

MCF7 cells [3] = test: ChIP on HERV LTRs and gene promoters in MCF7 cells; format: cell-based, human
Protocol: Values are averaged from 3 independent experiments.
Ionophores were used at 1 µM.

Jurkat T cells [4] = test: PADI4 production in Jurkat T cells after estrogen/ionophore treatment (data not shown); format: cell-based
Jurkat T cells [5] = test: RT-qPCR of TNFα, IL8 and PADI4 mRNA in Jurkat T cells; format: cell-based; settings: 200 µM Cl-amidine, 72 h; cells stimulated by ionomycin and PMA; duplicate
Protocol: (B) Total RNA was isolated from Jurkat cells either un-stimulated or treated with ionomycin and PMA for 2 hour. Changes in mRNA levels for the indicated genes were quantified by RT-qPCR. The data are presented as the means ± SEM of triplicate experiments. […] (D) Total RNA was isolated from Jurkat cells treated as in B minus or plus PADI-inhibitor cl-amidine as indicated. Changes in mRNA levels for the indicated genes were quantified by RT-qPCR. The data are presented as the means ± SEM of duplicate experiments.
Jurkat cells were treated with phorbol myristate acetate (PMA) at 40 nM. Ionophores were used at 1 µM. PADI4 inhibitor, Cl-amidine (from Bertin Pharma) was dissolved in 1× PBS as a 50 mM stock solution. MCF7 and Jurkat cells were treated with 200 µM Cl-amidine in complete cell culture medium for exactly 72 h.

[6] = E2 (200 nM, 24 h) + A23187 (5 µM, 30 min), minus or plus 200 µM Cl-amidine, relative to un-induced

17-ß-estradiol [E2/A23187]
expression of HERV-H/env62, ERVWE1 and the selected cytokine genes (MCF7 cells [1]; [6]): Cl-amidine-sensitive increase in expression | expression of HERV-H/env62 (MCF7 cells [1]; E2 and A23187, 24 h, normalized to RPLP0, three replicates): increases the expression | total levels of H3cit8K9me3 modification (MCF7 cells [2]; 200 nM E2 24 h, then 5 µM A23187 30 min): increases total levels | total levels of PADI4 (MCF7 cells [2]; 200 nM E2 24 h, then 5 µM A23187 30 min in Locke's solution): increases total levels; also recorded: induced | levels of citrullinated histone H3 at HERV-H, HERV-W/LTR and TNFα promoter (MCF7 cells [3]; E2+A23187, anti-H3cit (2, 8, 17) or anti-H3cit8K9me3): locally increases levels of citrullinated histone H3 | levels of HP1α recruitment at HERV-H, HERV-W/LTR and TNFα promoter (MCF7 cells [3]; E2+A23187, anti-HP1α): markedly decreased | production of PADI4 (Jurkat T cells [4]): stimulated production

NC(=O)[C@H](CCCN=C(N)CCl)NC(=O)c1ccccc1 [Cl-amidine]
expression of HERV-H/env62, ERVWE1 and the selected cytokine genes (MCF7 cells [1]; 200 µM Cl-amidine, 72 h, no E2/A23187, four replicates): reduced expression | expression of HERV-H/env62, ERVWE1 and the selected cytokine genes (MCF7 cells [1]; [6]): Cl-amidine-sensitive increase in expression | levels of H3Cit8K9me3 (MCF7 cells [2]; 200 µM Cl-amidine, 72 h): decreased levels of H3Cit8K9me3 | levels of HP1α occupancy at HERV-H, HERV-W/LTR and TNFα promoter (MCF7 cells [3]; E2+A23187 plus 200 µM Cl-amidine, anti-HP1α): partially restored | TNFα and IL8 mRNA accumulation (Jurkat T cells [5]): reduced the kinetic and the abundance
